A short description of data set [1]: Cell viability assay (CellTiter-Glo), HEK293. The following applies: human, HEK293 cells, 3 days of incubation. In kind it is cell-based. The method, then: (§1) Example D. Cell Viability Assays (Cell lines HEK293, RS4-11, MOLT-4)
(§2) Cells were seeded at a density of 4000 cells per well in the 384-well clear bottom plate (Greiner Cat #781090) to the 45 μL total volume of either DMEM (PanEco, Cat #C420, for HEK293) or RPMI (PanEco, Cat #C330, for other cell lines) with 10% FBS(HyClone Cat #SV30160.03). Prior to adding compounds, the HEK293 cells were allowed to adhere overnight at 37° C. and 5% CO2. The 500× compounds solutions in DMSO(Sigma Cat #D2650) were dispersed into a 384-well compound plate (Diamond Well Plate, Axigen, Cat #P-384-120 SQ-C—S) including only DMSO control. The 1 μL aliquots of the 500× compounds from the compound plate were added to 49 μL of culture medium in the Dilution plate (Diamond Well Plate, Axigen, Cat #P-384-120 SQ-C—S), mixed and then the 5 μL aliquts of the 10× compound solutions were transferred to cells followed by centrifugation at 100 g for 1 min. Final DMSO concentration was 0.2%. After 3 days of incubation the 10 μL aliquots of CellTiter-Glo (Promega, CAT #G7572) were added to the cells, plate was centrifuged at 100 g for 1 min and the luminescence was measured on the CLARIOstar Plus (BMG LABTECH) instrument.
(§3) Instrumentation: CLARIOstar Plus (BMG LABTECH); Biomek FX for liquid handling (Beckman Coulter).
A general note: ATP-based viability assays read luminescence as a measure of living cells.

For the next data set, the target named is BCL-2 (Homo sapiens (Human), UniProt P10415). Description: BCL-2 TR-FRET Assay (primary PPI inhibition). It is filed as binding. The following applies: 60 min incubation, read-out: BCL2 IC50. The method, then: Example A. BCL-2 TR-FRET Assay (BPS Bioscience, #50222)
The following assay concentrations and times were used: 3 ng of BCL-2, 5 μL of 1:100 anti-His Tb-labeled donor, 5 μL of 1:100 Dye-labeled acceptor, 5 µL of 1:40 BCL-2 Peptide Ligand, and 2 μL of 200× test compound, with 60 min incubation time (final concentration of DMSO 0.5%). The results of the assay were read using a plate reader with the following parameters: TR FRET, 340ex/620 and 665em; 60 usec Delay; and 500 usec integration.
as §3
For orientation: TR-FRET usually uses a lanthanide donor and a delayed reading to cut background.

For the next data set, the system named is MOLT-4 cells. Description: Cell viability assay (CellTiter-Glo), MOLT-4. It is filed as cell-based. The following applies: Homo sapiens, 72 h, 3 days of incubation. Here is the method: as §1, §2, §3
Data set [2] has as its system caspase-3 and -7 activities in RS4-11 cells. Description: Caspase-3/7 activation (Caspase-Glo 3/7) in RS4-11 cells. It is filed as cell-based. The following applies: Homo sapiens, 3.5 h, read-out: Cas-3/7 EC50. The method, then:
Example E. Caspase-3/7 Activation
Assay Principle: The Caspase-Glo 3/7 Assay is homogeneous, luminescent assay that measures caspase-3 and -7 activities. The assay provides a luminogenic caspase-3/7 substrate, which contains the tetrapeptide sequence DEVD, in a reagent optimized for caspase activity.
Assay Procedure: Incubate RS4-11 (ATCC, CRL-1873) cells in the 384-well white plate (Corning, #3570) with varying concentrations of test compounds for 3.5 h in a humidified incubator at 37° C. and 5% CO2 […]. Add 15 μL of the Caspase-Glo (Promega, #8212) reagent to each well and to incubate the plate for 30 min at rt. Read on the CLARIOstar Plus (BMG LABTECH) instrument.
as §3

For another data set, the target named is BCL-xL (Homo sapiens (Human), UniProt Q07817). Briefly: BCL-xL TR-FRET Assay (primary PPI inhibition). It is filed as binding. The note with it: 60 min incubation, read-out: BCLxL IC50. Here is the method: Example B. BCL-xL TR-FRET Assay (BPS Bioscience, #50223)
The following assay concentrations and times were used: 10.5 ng of BCL-xL, 5 μL of 1:120 anti-His Tb-labeled donor, 5 μL of 1:120 Dye-labeled acceptor, 5 μL of 1:96 BCL-xL Peptide Ligand, 2 μL of 200× test compound, with 60 min incubation time (final concentration of DMSO 0.5%). The results of the assay were read using a plate reader with the following parameters: TR FRET, 340ex/620 and 665em; 60 usec Delay; and 500 usec integration.
as §3

A further data set deals with RS4-11 cells. Briefly: Cell viability assay (CellTiter-Glo), RS4-11. In kind it is cell-based. The note with it: Homo sapiens, RS4-11, 72 h, 3 days of incubation. The method, then:
as §1, §2, §3

BCL-xL, sequence (Q07817 whole entry): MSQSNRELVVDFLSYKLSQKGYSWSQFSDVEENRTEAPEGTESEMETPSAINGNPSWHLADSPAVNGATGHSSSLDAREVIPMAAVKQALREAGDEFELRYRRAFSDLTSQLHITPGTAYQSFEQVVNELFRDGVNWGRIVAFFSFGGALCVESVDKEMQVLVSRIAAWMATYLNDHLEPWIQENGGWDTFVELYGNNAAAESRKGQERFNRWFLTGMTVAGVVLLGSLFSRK
BCL-2, sequence (P10415 whole entry): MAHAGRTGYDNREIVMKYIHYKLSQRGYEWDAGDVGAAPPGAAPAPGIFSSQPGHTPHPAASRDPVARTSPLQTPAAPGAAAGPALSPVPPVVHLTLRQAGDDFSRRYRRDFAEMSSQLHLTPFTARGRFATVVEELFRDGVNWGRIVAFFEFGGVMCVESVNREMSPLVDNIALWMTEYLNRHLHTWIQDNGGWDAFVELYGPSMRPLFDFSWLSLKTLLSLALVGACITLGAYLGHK

Turning to `COc1ccccc1CN(C(=O)c1cc(-c2cc(Cl)ccc2C(=O)N2Cc3ccccc3C[C@H]2CN2CCOCC2)n(C)c1C)c1ccc2[nH]ncc2c1` [Compound 69, 5-[5-chloro-2-[(3S)-3-(morpholinomethyl)-3,4-dihydro-1H-isoquinoline-2-carbonyl]phenyl]-N-(1H-indazol-5-yl)-N-[(2-methoxyphenyl)methyl]-1,2-dimethyl-pyrrole-3-carboxamide], the CC50 at 3 days in data set [1] was > 25000 nM. Besides, the results for the IC50 on BCL-2 and on BCL-xL were 10 to 50 nM and > 5000 nM, respectively. In addition, the half-maximal cytotoxic concentration (CC50) with MOLT-4 cells is > 10000 nM; in the data set on RS4-11 cells it was > 200 nM. Besides, the EC50 in data set [2] was > 500 nM.

With `COc1cccc(CN(C(=O)c2cc(-c3cc(C(N)=O)ccc3C(=O)N3Cc4ccccc4C[C@H]3CN3CCOCC3)n(C)c2C)c2ccc(O)cc2)c1C` [Compound 64, 5-[5-carbamoyl-2-[(3S)-3-(morpholinomethyl)-3,4-dihydro-1H-isoquinoline-2-carbonyl]phenyl]-N-(4-hydroxyphenyl)-N-[(3-methoxy-2-methyl-phenyl)methyl]-1,2-dimethyl-pyrrole-3-carboxamide], in data set [1], the CC50 at 3 days was > 25000 nM. Moreover, the half-inhibitory concentration (IC50) on BCL-2 was ≤ 5 nM; on BCL-xL it was > 5000 nM. Also, the 50% cytotoxic concentration (CC50) was > 10000 nM in the data set with MOLT-4 cells and ≤ 100 nM in the data set on RS4-11 cells. For the same molecule, the EC50 in data set [2] is > 500 nM.

`COc1cccc(CN(C(=O)c2cc(-c3cc([N+](=O)[O-])ccc3C(=O)N3Cc4ccccc4C[C@H]3CN3CCOCC3)n(C)c2C)c2ccc(O)cc2)c1C` [Compound 61, N-(4-hydroxyphenyl)-N-[(3-methoxy-2-methyl-phenyl)methyl]-1,2-dimethyl-5-[2-[(3S)-3-(morpholinomethyl)-3,4-dihydro-1H-isoquinoline-2-carbonyl]-5-nitro-phenyl]pyrrole-3-carboxamide]: the CC50 at 3 days in data set [1] was > 25000 nM. Besides, the IC50 was ≤ 5 nM on BCL-2 and > 5000 nM on BCL-xL. In addition, the 50% cytotoxic concentration (CC50) with MOLT-4 cells was ≤ 5000 nM; in the data set on RS4-11 cells, ≤ 100 nM. For the same molecule, in data set [2], the EC50 lay within 200 to 500 nM.

`COc1ccccc1CN(C(=O)c1cc(-c2cc(OC)c(C(N)=O)cc2C(=O)N2Cc3ccccc3C[C@H]2CN2CCOCC2)n(C)c1C)c1ccc(Cl)cc1` [Compound 63, 5-[4-carbamoyl-5-methoxy-2-[(3S)-3-(morpholinomethyl)-3,4-dihydro-1H-isoquinoline-2-carbonyl]phenyl]-N-(4-chlorophenyl)-N-[(2-methoxyphenyl)methyl]-1,2-dimethyl-pyrrole-3-carboxamide] yielded a half-maximal cytotoxic concentration (CC50) at 3 days in data set [1] of 10000 to 25000 nM. Also, the IC50 at BCL-2 lay in the range of 10 to 50 nM. For the same molecule, the CC50 in the data set on MOLT-4 cells was ≤ 5000 nM; in the data set on RS4-11 cells it was 100 to 200 nM. In addition, the EC50 in data set [2] was > 500 nM.

Regarding `COc1cc(-c2cc(C(=O)N(Cc3cccc(OC)c3C)c3ccc(O)cc3)c(C)n2C)c(C(=O)N2Cc3ccccc3C[C@H]2CN2CCOCC2)cc1C#N` [Compound 58, 5-[4-cyano-5-methoxy-2-[(3S)-3-(morpholinomethyl)-3,4-dihydro-1H-isoquinoline-2-carbonyl]phenyl]-N-(4-hydroxyphenyl)-N-[(3-methoxy-2-methyl-phenyl)methyl]-1,2-dimethyl-pyrrole-3-carboxamide], in data set [1], the CC50 at 3 days is > 25000 nM. The IC50 was > 50 nM at BCL-2 and 2000 to 5000 nM at BCL-xL. The CC50 in the data set with MOLT-4 cells is ≤ 5000 nM; in the data set on RS4-11 cells, > 200 nM. Further, the EC50 in data set [2] was > 500 nM.

For `Cc1c(C(=O)N(Cc2ccccc2C#N)c2ccc(O)cc2)cc(-c2cc([N+](=O)[O-])ccc2C(=O)N2Cc3ccccc3C[C@H]2CN2CCOCC2)n1C` [Compound 62, N-[(2-cyanophenyl)methyl]-N-(4-hydroxyphenyl)-1,2-dimethyl-5-[2-[(3S)-3-(morpholinomethyl)-3,4-dihydro-1H-isoquinoline-2-carbonyl]-5-nitro-phenyl]pyrrole-3-carboxamide], the CC50 at 3 days in data set [1] is > 25000 nM. Also, the IC50 on BCL-2 is ≤ 5 nM; at BCL-xL, > 5000 nM. The 50% cytotoxic concentration (CC50) was ≤ 5000 nM with MOLT-4 cells and ≤ 100 nM with RS4-11 cells. Moreover, in data set [2], the EC50 is ≤ 200 nM.

`COc1cc(-c2cc(C(=O)N(Cc3ccccc3OC)c3ccc(Cl)cc3)c(C)n2C)c(C(=O)N2Cc3ccccc3C[C@H]2CN2CCOCC2)cc1C#N` [Compound 56, N-(4-chlorophenyl)-5-[4-cyano-5-methoxy-2-[(3S)-3-(morpholinomethyl)-3,4-dihydro-1H-isoquinoline-2-carbonyl]phenyl]-N-[(2-methoxyphenyl)methyl]-1,2-dimethyl-pyrrole-3-carboxamide]: the CC50 at 3 days in data set [1] is ≤ 10000 nM. Also, the half-maximal inhibitory concentration (IC50) at BCL-2 was > 50 nM; at BCL-xL, 2000 to 5000 nM. Also, the CC50 in the data set with MOLT-4 cells was ≤ 5000 nM; with RS4-11 cells, > 200 nM. In addition, the EC50 in data set [2] was > 500 nM.

For the molecule `COc1cccc(CN(C(=O)c2cc(-c3cc(C#N)ccc3C(=O)N3Cc4ccccc4C[C@H]3CN3CCOCC3)n(C)c2C)c2ccc(O)cc2)c1C` [Compound 57, 5-[5-cyano-2-[(3S)-3-(morpholinomethyl)-3,4-dihydro-1H-isoquinoline-2-carbonyl]phenyl]-N-(4-hydroxyphenyl)-N-[(3-methoxy-2-methyl-phenyl)methyl]-1,2-dimethyl-pyrrole-3-carboxamide], the CC50 at 3 days in data set [1] is > 25000 nM. In addition, the concentration for half-maximal inhibition (IC50) is 5 to 10 nM on BCL-2 and 2000 to 5000 nM on BCL-xL. Further, the CC50 was ≤ 5000 nM in the data set with MOLT-4 cells and ≤ 100 nM in the data set with RS4-11 cells. Besides, the EC50 in data set [2] is ≤ 200 nM.

Consider `COc1cccc(CN(C(=O)c2cc(-c3cc(C(F)F)c(Cl)cc3C(=O)N3Cc4ccccc4C[C@H]3CN3CCOCC3)n(C)c2C)c2ccc(Cl)cc2)c1C` [Compound 39, 5-[4-chloro-5-(difluoromethyl)-2-[(3S)-3-(morpholinomethyl)-3,4-dihydro-1H-isoquinoline-2-carbonyl]phenyl]-N-(4-chlorophenyl)-N-[(3-methoxy-2-methyl-phenyl)methyl]-1,2-dimethyl-pyrrole-3-carboxamide], for which the cytotoxic concentration (CC50) at 3 days in data set [1] was > 25000 nM. The figures for the IC50 on BCL-2 and on BCL-xL were > 50 nM and 2000 to 5000 nM, respectively. Further, the CC50 with MOLT-4 cells is ≤ 5000 nM; in the data set on RS4-11 cells it was > 200 nM. In addition, the EC50 in data set [2] was > 500 nM.

`Cc1c(C(=O)N(Cc2ccccc2C#N)c2ccc(O)cc2)cc(-c2cc(F)c(F)cc2C(=O)N2Cc3ccccc3C[C@H]2CN2CCOCC2)n1C` [Compound 53, N-[(2-cyanophenyl)methyl]-5-[4,5-difluoro-2-[(3S)-3-(morpholinomethyl)-3,4-dihydro-1H-isoquinoline-2-carbonyl]phenyl]-N-(4-hydroxyphenyl)-1,2-dimethyl-pyrrole-3-carboxamide]: the CC50 at 3 days in data set [1] was > 25000 nM. Also, the IC50 at BCL-2 is 10 to 50 nM; at BCL-xL, 2000 to 5000 nM. The CC50 in the data set on MOLT-4 cells lay within 5000 to 10000 nM; with RS4-11 cells it was 100 to 200 nM. In addition, the EC50 in data set [2] lay in the range of 200 to 500 nM.

On to `COc1cccc(CN(C(=O)c2cc(-c3cc(Cl)ccc3C(=O)N3Cc4ccccc4C[C@H]3CN3CCOCC3)n(C)c2C)c2ccc(C#N)cc2)c1C` [Compound 33, 5-[5-chloro-2-[(3S)-3-(morpholinomethyl)-3,4-dihydro-1H-isoquinoline-2-carbonyl]phenyl]-N-(4-cyanophenyl)-N-[(3-methoxy-2-methyl-phenyl)methyl]-1,2-dimethyl-pyrrole-3-carboxamide], for which the IC50 was > 50 nM at BCL-2 and 2000 to 5000 nM on BCL-xL.

For orientation: CC50 means the concentration giving 50% cytotoxicity. The low end stands for harm at low concentration, the high end for better tolerance by the cells. What is called IC50 is the concentration at which inhibition is half-maximal.

The values above are taken from patent US20250115577A1, “BCL-2 Inhibitors” (Eil Therapeutics, Inc., priority 2021, published 2025).
